Values after ≈ are worked out from the molar mass of the structure shown.
Assays:
Candida albicans [1] = test: Antifungal activity against Candida albicans AMB-25 incubated for 48 hrs by serial two-fold dilution method; assay type: functional
[2] = Toxicity in iv dosed mouse; assay type: organism-based; details: in vivo
[3] = Competitive inhibition of Candida albicans AMB-25 glucosamine synthetase using glutamine as substrate incubated for 30 mins by Lineweaver-Burk plot based Dixon plot analysis
[4] = Inhibition of Candida albicans AMB-25 glucosamine-6-phosphate synthase using glutamine as substrate incubated for 30 mins
Candida albicans [5] = test: Antifungal activity against Candida albicans A9540 infected in iv dosed ICR mouse assessed as protection against fungus-induced lethal infection dosed thrice at 48 hrs interval immediately following fungal challenge and measured on day 20 post infection by Litchfield -Wilcoxon method; assay type: functional; details: 480 h, time 20 day, read-out: PD50
Aspergillus fumigatus [6] = test: Antifungal activity against Aspergillus fumigatus IAM2034 infected in iv dosed ICR mouse assessed as protection against fungus-induced lethal infection dosed thrice at 48 hrs interval immediately following fungal challenge and measured on day 20 post infection by Litchfield -Wilcoxon method; assay type: functional; details: 480 h, time 20 day, read-out: PD50
Candida albicans [7] = test: Antifungal activity against Candida albicans infected in mouse assessed as protection against fungus-induced lethal infection; assay type: functional; details: read-out: PD50
[8] = Solubility in water at pH 7.2; assay type: physicochemical
Aspergillus fumigatus [9] = test: Antifungal activity against Aspergillus fumigatus IAM2034 incubated for 40 hrs by serial agar dilution method; assay type: functional
Aspergillus fumigatus [10] = test: Antifungal activity against Aspergillus fumigatus IAM2530 incubated for 40 hrs by serial agar dilution method; assay type: functional
Cryptococcus neoformans [11] = test: Antifungal activity against Cryptococcus neoformans IAM4514 incubated for 40 hrs by serial agar dilution method; assay type: functional
Cryptococcus neoformans [12] = test: Antifungal activity against Cryptococcus neoformans D49 incubated for 40 hrs by serial agar dilution method; assay type: functional
Candida albicans [13] = test: Antifungal activity against Candida albicans A9540 incubated for 40 hrs by serial agar dilution method; assay type: functional
Candida albicans [14] = test: Antifungal activity against Candida albicans IAM 888 incubated for 40 hrs by serial agar dilution method; assay type: functional
Aspergillus flavus [15] = test: Antifungal activity against Aspergillus flavus FA21436 NRRL 484 incubated for 40 hrs by serial agar dilution method; assay type: functional
Fusarium verticillioides = test: Antifungal activity against Fusarium monoliforme A2284 incubated for 40 hrs by serial agar dilution method; assay type: functional
[16] = tested on: Trichophyton mentagrophytes; test: Antifungal activity against Trichophyton mentagrophytes D155 incubated for 40 hrs by serial agar dilution method; assay type: functional
[17] = tested on: Trichophyton mentagrophytes; test: Antifungal activity against Trichophyton mentagrophytes N0.4329 incubated for 40 hrs by serial agar dilution method; assay type: functional
Blastomyces dermatitidis = test: Antifungal activity against Blastomyces dermatitidis IFO8144 incubated for 40 hrs by serial agar dilution method; assay type: functional
Sporothrix schenckii = test: Antifungal activity against Sporothrix schenckii IFO8158 incubated for 40 hrs by serial agar dilution method; assay type: functional
Scedosporium boydii = test: Antifungal activity against Petriellidium boydii IFO8078 incubated for 40 hrs by serial agar dilution method; assay type: functional
Candida albicans [18] = test: Antifungal activity against Candida albicans A9540 infected in iv dosed ICR mouse assessed as protection against fungus-induced lethal infection dosed once immediately following fungal challenge and measured on day 20 post infection; assay type: functional; details: 480 h, time 20 day, read-out: PD50
[19] = Inhibition of Saccharomyces cerevisiae CGMCC 2.145 CHS using UDP-GlcNAc as substrate incubated for 60 min by WGA-HRP tracer based method
Candida albicans [20] = test: Antifungal activity against Candida albicans incubated for 24 hrs by serial 2-fold dilution method; assay type: functional
Nakaseomyces glabratus = test: Antifungal activity against Candida glabrata incubated for 24 hrs by serial 2-fold dilution method; assay type: functional
Candida tropicalis = test: Antifungal activity against Candida tropicalis incubated for 24 hrs by serial 2-fold dilution method; assay type: functional
[21] = Inhibition of Candida albicans IFO1060 1,3-beta-D-glucan synthase using UDP-[6-3H]-glucose as substrate incubated for 30 mins by radioactivity
Candida albicans [22] = test: Antifungal activity against Candida albicans ATCC 48130 incubated for 1 day by NCCLS M27-A2 microdilution method; assay type: functional; details: ATCC 48130, 24 h
Candida albicans [23] = test: Antifungal activity against Candida albicans CY3003 incubated for 1 day by NCCLS M27-A2 microdilution method; assay type: functional; details: CY3003, 24 h
Candida albicans [24] = test: Antifungal activity against Candida albicans CY1123 incubated for 1 day by NCCLS M27-A2 microdilution method; assay type: functional; details: CY1123, 24 h
Candida albicans [25] = test: Antifungal activity against Candida albicans CY1124 incubated for 1 day by NCCLS M27-A2 microdilution method; assay type: functional; details: CY1124, 24 h
Aspergillus fumigatus [26] = test: Antifungal activity against Aspergillus fumigatus CF1083 incubated for 1 day by NCCLS M27-A2 microdilution method; assay type: functional; details: CF1083, 24 h
Aspergillus fumigatus [27] = test: Antifungal activity against Aspergillus fumigatus CF1003 incubated for 1 day by NCCLS M27-A2 microdilution method; assay type: functional; details: CF1003, 24 h
Aspergillus fumigatus [28] = test: Antifungal activity against Aspergillus fumigatus CF924390 incubated for 1 day by NCCLS M27-A2 microdilution method; assay type: functional; details: CF924390, 24 h
Candida albicans [29] = test: Antifungal activity against Candida albicans ATCC2001 incubated for 2 day by NCCLS M27-A2 microdilution method; assay type: functional; details: ATCC2001, 48 h
Candida albicans [30] = test: Antifungal activity against Candida albicans IFO0005 incubated for 3 day by NCCLS M27-A2 microdilution method; assay type: functional; details: IFO0005, 72 h
Candida albicans [31] = test: Antifungal activity against Candida albicans CMCC 76615 incubated for 24 hrs; assay type: functional
Aspergillus fumigatus [32] = test: Antifungal activity against Aspergillus fumigatus GIMCC 3.19 incubated for 24 hrs; assay type: functional
Cryptococcus neoformans [33] = test: Antifungal activity against Cryptococcus neoformans ATCC 32719 incubated for 24 hrs; assay type: functional
Aspergillus flavus [34] = test: Antifungal activity against Aspergillus flavus ATCC 16870 incubated for 24 hrs; assay type: functional

CCC[C@H](N)C(=O)N[C@@H](CNC(=O)/C=C/C(=O)OC)C(=O)O
MIC (Candida albicans [1]): 0.4 µg/mL (≈ 1.27 µM) | LD50 [2]: > 300 mg/kg

COC(=O)/C=C/C(=O)NC[C@H](N)C(=O)O
Ki [3]: 100 nM | MIC (Candida albicans [1]): > 200 µg/mL | IC50 [4]: 4.03 µg/mL (≈ 18.6 µM)

COc1cc(O)c2c(c1)C(=O)c1c(cc3c(c1O)-c1c(cc(C)c(C(=O)N[C@H](CO)C(=O)O)c1O)[C@H](O[C@@H]1O[C@H](C)[C@H](N(C)C)[C@H](O[C@@H]4OC[C@@H](O)[C@H](O)[C@H]4O)[C@H]1O)[C@H]3O)C2=O
ED50 (Candida albicans [5]): 15 mg/kg | ED50 (Aspergillus fumigatus [6]): 23 mg/kg | ED50 (Candida albicans [7]): 50 mg/kg | solubility [8]: > 20 mg/mL

CN[C@@H]1[C@H](O[C@@H]2OC[C@@H](O)[C@H](O)[C@H]2O)[C@@H](O)[C@H](O[C@H]2c3cc(C)c(C(=O)N[C@H](CO)C(=O)O)c(O)c3-c3c(cc4c(c3O)C(=O)c3cc(OC)cc(O)c3C4=O)[C@@H]2O)O[C@@H]1C
MIC (Aspergillus fumigatus [9]): 0.8 µg/mL (≈ 0.934 µM) | MIC (Aspergillus fumigatus [10]): 0.8 µg/mL (≈ 0.934 µM) | MIC (Cryptococcus neoformans [11]): 0.8 µg/mL (≈ 0.934 µM) | MIC (Cryptococcus neoformans [12]): 0.8 µg/mL (≈ 0.934 µM) | MIC (Candida albicans [13]): 0.8 µg/mL (≈ 0.934 µM) | MIC (Candida albicans [14]): 0.8 µg/mL (≈ 0.934 µM) | MIC (Aspergillus flavus [15]): 0.8 µg/mL (≈ 0.934 µM) | MIC (Fusarium verticillioides): 0.8 µg/mL (≈ 0.934 µM) | MIC [16]: 0.8 µg/mL (≈ 0.934 µM) | MIC [17]: 0.8 µg/mL (≈ 0.934 µM) | MIC (Blastomyces dermatitidis): 0.8 µg/mL (≈ 0.934 µM) | MIC (Sporothrix schenckii): 0.8 µg/mL (≈ 0.934 µM) | MIC (Scedosporium boydii): 0.8 µg/mL (≈ 0.934 µM) | ED50 (Candida albicans [18]): 7.4 mg/kg

COc1ccc(N2CCN(C(=O)[C@H](O)[C@@H](O)C(=O)Nc3c(O)c4cc(O)ccc4oc3=O)CC2)cc1
IC50 [19]: 100000 nM

COC(=O)/C=C/C(=O)NC[C@H](NC(=O)CN(CCOC(C)=O)CCOC(C)=O)C(=O)OCOC(=O)Cc1ccccc1.Cl
MIC (Candida albicans [20]): 31.3 µg/mL | MIC (Nakaseomyces glabratus): 125 µg/mL | MIC (Candida tropicalis): 31.3 µg/mL

O=C(Nc1c(F)cccc1F)OCCCN1CCN(c2nc3ccccc3s2)CC1
IC50 [21]: 160 nM | MIC (Candida albicans [22]): 0.26 µg/mL (≈ 0.601 µM) | MIC (Candida albicans [23]): 0.26 µg/mL (≈ 0.601 µM) | MIC (Candida albicans [24]): 0.26 µg/mL (≈ 0.601 µM) | MIC (Candida albicans [25]): 0.26 µg/mL (≈ 0.601 µM) | MIC (Aspergillus fumigatus [26]): 0.15 µg/mL (≈ 0.347 µM) | MIC (Aspergillus fumigatus [27]): 0.15 µg/mL (≈ 0.347 µM) | MIC (Aspergillus fumigatus [28]): 0.15 µg/mL (≈ 0.347 µM) | MIC (Candida albicans [29]): 0.17 µg/mL (≈ 0.393 µM) | MIC (Candida albicans [30]): 0.17 µg/mL (≈ 0.393 µM)

O=C(Nc1c(O)c2ccccc2oc1=O)[C@H](O)[C@@H](O)C(=O)N1CCN(c2ccc(Cl)cc2)CC1
MIC (Candida albicans [31]): 4 µg/mL (≈ 8.2 µM) | MIC (Aspergillus fumigatus [32]): 4 µg/mL (≈ 8.2 µM) | MIC (Cryptococcus neoformans [33]): 4 µg/mL (≈ 8.2 µM) | MIC (Aspergillus flavus [34]): 4 µg/mL (≈ 8.2 µM)

— ChEMBL document CHEMBL4715849, “Recent Progress in the Discovery of Antifungal Agents Targeting the Cell Wall” (J Med Chem, 2020)
